In patent US10519154B2, “7-substituted 1-pyridyl-naphthyridine-3-carboxylic acid amides and use thereof” (Bayer Pharma Aktiengesellschaft, priority 2016, dated 2019) one finds EC50 and Emax data, which are given here for 21 molecules.

What is called EC50 is the concentration needed to bring the measured effect to its halfway point. A higher EC50 goes with a need for much substance.

This experiment concerns the target T1, human M2 receptor (Homo sapiens, UniProt P08172).
T1 sequence (P08172 1-466): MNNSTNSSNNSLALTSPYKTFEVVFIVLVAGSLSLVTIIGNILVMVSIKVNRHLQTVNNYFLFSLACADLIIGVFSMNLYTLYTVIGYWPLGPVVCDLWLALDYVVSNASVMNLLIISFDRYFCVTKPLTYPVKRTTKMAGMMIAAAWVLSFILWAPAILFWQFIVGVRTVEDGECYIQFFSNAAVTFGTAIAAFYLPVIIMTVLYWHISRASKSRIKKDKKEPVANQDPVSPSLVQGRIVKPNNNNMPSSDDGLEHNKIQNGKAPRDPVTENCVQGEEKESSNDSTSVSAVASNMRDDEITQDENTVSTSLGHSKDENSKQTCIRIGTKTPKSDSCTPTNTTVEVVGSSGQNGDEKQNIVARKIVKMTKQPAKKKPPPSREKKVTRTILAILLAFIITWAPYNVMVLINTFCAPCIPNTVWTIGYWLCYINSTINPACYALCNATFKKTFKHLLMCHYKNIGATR
Briefly: Functional M2-GIRK1/4 activation test: allosteric potency (EC50) and efficiency. Particulars: for EC50: Receptor activity EC50, CHO-DUKX-M2-GIRK cells, acetylcholine at EC20, in some cases mean of two or more determinations; for Emax: read-out: Efficiency, boosting of the acetylcholine effect at EC20 acetylcholine concentration, CHO-DUKX-M2-GIRK cells.

For `O=C(NC(c1cccc(F)c1)C(F)(F)F)c1cn(-c2ncc(F)cc2F)c2nc(N3C[C@@H](O)CC3=O)ccc2c1=O` (stereo partly drawn) [Example 10, 1-(3,5-Difluoropyridin-2-yl)-7-[(4S)-4-hydroxy-2-oxopyrrolidin-1-yl]-4-oxo-N-[2,2,2-trifluoro-1-(3-fluorophenyl)ethyl]-1,4-dihydro-1,8-naphthyridine-3-carboxamide], the EC50 stood at 25 nM and the Emax turned out to be 95.5%.
In the same order, the values of `CC[C@@H](NC(=O)c1cn(-c2ncc(F)cc2Cl)c2nc(N3C[C@@H](O)CC3=O)ccc2c1=O)C(F)(F)F` [Example 20, 1-(3-Chloro-5-fluoropyridin-2-yl)-7-[(4S)-4-hydroxy-2-oxopyrrolidin-1-yl]-4-oxo-N-[(2R)-1,1,1-trifluorobutan-2-yl]-1,4-dihydro-1,8-naphthyridine-3-carboxamide] are 330 nM and 87%.
The like results for `O=C(N[C@H](C1CC1)C(F)(F)F)c1cn(-c2ncc(F)cc2Cl)c2nc(N3C[C@@H](O)CC3=O)ccc2c1=O` [Example 21, 1-(3-Chloro-5-fluoropyridin-2-yl)-N-[(1R)-1-cyclopropyl-2,2,2-trifluoroethyl]-7-[(4S)-4-hydroxy-2-oxopyrrolidin-1-yl]-4-oxo-1,4-dihydro-1,8-naphthyridine-3-carboxamide] were, in that order, 195 nM and 98.5%.
The like results for `O=C(N[C@H](C1CC1)C(F)(F)F)c1cn(-c2ncccc2Cl)c2nc(N3C[C@@H](O)CC3=O)ccc2c1=O` [Example 22, 1-(3-Chloropyridin-2-yl)-N-[(1R)-1-cyclopropyl-2,2,2-trifluoroethyl]-7-[(4S)-4-hydroxy-2-oxopyrrolidin-1-yl]-4-oxo-1,4-dihydro-1,8-naphthyridine-3-carboxamide] were, in that order, 575 nM and 85%.
With `O=C(NC(c1cccc(F)c1)C(F)(F)F)c1cn(-c2ncccc2Cl)c2nc(N3C[C@@H](O)CC3=O)ccc2c1=O` (stereo partly drawn) [Example 23, 1-(3-Chloropyridin-2-yl)-7-[(4S)-4-hydroxy-2-oxopyrrolidin-1-yl]-4-oxo-N-[2,2,2-trifluoro-1-(3-fluorophenyl)ethyl]-1,4-dihydro-1,8-naphthyridine-3-carboxamide], the EC50 worked out at 145 nM and the Emax came out at 92%.
`CC[C@H](NC(=O)c1cn(-c2c(F)cncc2F)c2nc(N3C[C@@H](O)CC3=O)ccc2c1=O)C(F)(F)F` [Example 24, 1-(3,5-Difluoropyridin-4-yl)-7-[(4S)-4-hydroxy-2-oxopyrrolidin-1-yl]-4-oxo-N-[(2S)-1,1,1-trifluorobutan-2-yl]-1,4-dihydro-1,8-naphthyridine-3-carboxamide]: the EC50 is 560 nM and the Emax stood at 87%.
In the same order, the values of `O=C(NC(C1CC1)C(F)(F)F)c1cn(-c2ncc(F)cc2F)c2nc(N3CC[C@H](O)C3=O)ccc2c1=O` (stereo partly drawn) [Example 25, N-[1-Cyclopropyl-2,2,2-trifluoroethyl]-1-(3,5-difluoropyridin-2-yl)-7-[(3S)-3-hydroxy-2-oxopyrrolidin-1-yl]-4-oxo-1,4-dihydro-1,8-naphthyridine-3-carboxamide] are 210 nM and 98%.
The like results for `O=C(NC(C1CC1)C(F)(F)F)c1cn(-c2ncc(F)cc2F)c2nc(N3CC[C@@H](O)C3=O)ccc2c1=O` (stereo partly drawn) [Example 26, N-[1-Cyclopropyl-2,2,2-trifluoroethyl]-1-(3,5-difluoropyridin-2-yl)-7-[(3R)-3-hydroxy-2-oxopyrrolidin-1-yl]-4-oxo-1,4-dihydro-1,8-naphthyridine-3-carboxamide] were, in that order, 200 nM and 94.5%.
The like results for `CC[C@H](NC(=O)c1cn(-c2ncc(F)cc2F)c2nc(N3C(=O)C(C)(C)C(O)C34CC4)ccc2c1=O)C(F)(F)F` (stereo partly drawn) [Example 31, 1-(3,5-Difluoropyridin-2-yl)-7-[7-hydroxy-6,6-dimethyl-5-oxo-4-azaspiro[2.4]hept-4-yl]-4-oxo-N-[(2S)-1,1,1-trifluorobutan-2-yl]-1,4-dihydro-1,8-naphthyridine-3-carboxamide] were, in that order, 645 nM and 88.5%.
In the case of `CC1(C)C(=O)N(c2ccc3c(=O)c(C(=O)N[C@H](C4CC4)C(F)(F)F)cn(-c4ncc(F)cc4F)c3n2)C2(CC2)C1O` (stereo partly drawn) [Example 32], the EC50 worked out at 400 nM and the Emax stood at 89.5%.
In the same order, the values of `CC1(C)C(=O)N(c2ccc3c(=O)c(C(=O)N[C@@H](C4CC4)C(F)(F)F)cn(-c4ncc(F)cc4F)c3n2)C2(CC2)C1O` (stereo partly drawn) [Example 33, N-[(1S)-1-Cyclopropyl-2,2,2-trifluoroethyl]-1-(3,5-difluoropyridin-2-yl)-7-[7-hydroxy-6,6-dimethyl-5-oxo-4-azaspiro[2.4]hept-4-yl]-4-oxo-1,4-dihydro-1,8-naphthyridine-3-carboxamide] are 505 nM and 83%.
Take `CC[C@@H](NC(=O)c1cn(-c2ncc(F)cc2F)c2nc(N3CCCCC3=O)ccc2c1=O)C(F)(F)F` [Example 34, 1-(3,5-Difluoropyridin-2-yl)-4-oxo-7-(2-oxopiperidin-1-yl)-N-[(2R)-1,1,1-trifluorobutan-2-yl]-1,4-dihydro-1,8-naphthyridine-3-carboxamide]: the EC50 came out at 880 nM and the Emax turned out to be 82%.
The like results for `O=C(NC(C1CC1)C(F)(F)F)c1cn(-c2ncc(F)cc2F)c2nc(N3C[C@@H](O)[C@@H](O)C3)ccc2c1=O` (stereo partly drawn) [Example 35, N-[1-Cyclopropyl-2,2,2-trifluoroethyl]-1-(3,5-difluoropyridin-2-yl)-7-[(3R,4S)-3,4-dihydroxypyrrolidin-1-yl]-4-oxo-1,4-dihydro-1,8-naphthyridine-3-carboxamide] were, in that order, 170 nM and 99.5%.
The like results for `O=C(NC(C1CC1)C(F)(F)F)c1cn(-c2ncc(F)cc2F)c2nc(N3CC4CC4(O)C3)ccc2c1=O` (stereo not drawn) [Example 36, N-[1-Cyclopropyl-2,2,2-trifluoroethyl]-1-(3,5-difluoropyridin-2-yl)-7-[1-hydroxy-3-azabicyclo[3.1.0]hex-3-yl]-4-oxo-1,4-dihydro-1,8-naphthyridine-3-carboxamide] were, in that order, 22 nM and 100%.
The like results for `O=C(NC(C1CC1)C(F)(F)F)c1cn(-c2ncc(F)cc2F)c2nc(N3C[C@@H](O)[C@H](O)C3)ccc2c1=O` (stereo partly drawn) [Example 40, N-[1-Cyclopropyl-2,2,2-trifluoroethyl]-1-(3,5-difluoropyridin-2-yl)-7-[(3R,4R)-3,4-dihydroxypyrrolidin-1-y1]-4-oxo-1,4-dihydro-1,8-naphthyridine-3-carboxamide] were, in that order, 160 nM and 100%.
Turning to `CC[C@@H](NC(=O)c1cn(-c2ncc(F)cc2F)c2nc(N3C[C@@H](O)[C@@H](O)C3)ccc2c1=O)C(F)(F)F` [Example 41, 1-(3,5-Difluoropyridin-2-yl)-7-[(3R,4S)-3,4-dihydroxypyrrolidin-1-yl]-4-oxo-N-[(2R)-1,1,1-trifluorobutan-2-yl]-1,4-dihydro-1,8-naphthyridine-3-carboxamide], a half-maximal effect (EC50) was put at 330 nM and the Emax is 100%.
In the same order, the values of `CC[C@@H](NC(=O)c1cn(-c2ncc(F)cc2F)c2nc(N3C[C@@H](O)[C@H](O)C3)ccc2c1=O)C(F)(F)F` [Example 42, 1-(3,5-Difluoropyridin-2-yl)-7-[(3R,4R)-3,4-dihydroxypyrrolidin-1-yl]-4-oxo-N-[(2R)-1,1,1-trifluorobutan-2-yl]-1,4-dihydro-1,8-naphthyridine-3-carboxamide] are 295 nM and 100%.
In the same order, the values of `O=C(N[C@H](C1CC1)C(F)(F)F)c1cn(-c2ncc(F)cc2Cl)c2nc(N3C[C@@H](O)[C@@H](O)C3)ccc2c1=O` [Example 50, 1-(3-Chloro-5-fluoropyridin-2-yl)-N-[(1R)-1-cyclopropyl-2,2,2-trifluoroethyl]-7-[(3R,4S)-3,4-dihydroxypyrrolidin-1-yl]-4-oxo-1,4-dihydro-1,8-naphthyridine-3-carboxamide] are 730 nM and 92%.
In the same order, the values of `O=C(N[C@H](C1CC1)C(F)(F)F)c1cn(-c2ncc(F)cc2Cl)c2nc(N3C[C@@H](O)[C@H](O)C3)ccc2c1=O` [Example 51, 1-(3-Chloro-5-fluoropyridin-2-yl)-N-[(1R)-1-cyclopropyl-2,2,2-trifluoroethyl]-7-[(3R,4R)-3,4-dihydroxypyrrolidin-1-yl]-4-oxo-1,4-dihydro-1,8-naphthyridine-3-carboxamide] are 527 nM and 84.3%.
For `O=C(NC(C(F)(F)F)C(F)(F)F)c1cn(-c2ncc(F)cc2F)c2nc(N3C[C@H](O)[C@@H](O)C3)ccc2c1=O` [Example 60, 1-(3,5-Difluoropyridin-2-yl)-7-[(3S,4S)-3,4-dihydroxypyrrolidin-1-yl]-N-(1,1,1,3,3,3-hexafluoropropan-2-yl)-4-oxo-1,4-dihydro-1,8-naphthyridine-3-carboxamide], the EC50 stood at 275 nM and the Emax amounted to 100%.
The like results for `O=C(N[C@@H](C1CC1)C(F)(F)F)c1cn(-c2ncc(F)cc2F)c2nc(N3C[C@H](O)[C@@H](O)C3)ccc2c1=O` [Example 61, N-[(1S)-1-Cyclopropyl-2,2,2-trifluoroethyl]-1-(3,5-difluoropyridin-2-yl)-7-[(3S,4S)-3,4-dihydroxypyrrolidin-1-yl]-4-oxo-1,4-dihydro-1,8-naphthyridine-3-carboxamide] were, in that order, 795 nM and 100%.
